In patent US20260132160A1, “IRON REPLACEMENT TREATMENTS” (The General Hospital Corporation, priority 2022, published 2026):
Entries after “also recorded” stand apart in the source; their conditions may differ.

Assays:
Tmprss6 knockout mice = experiment: Tolerability after repeat dosing (clinical chemistry, liver qPCR); assay type: in vivo, mouse
Experimental: Tmprss6 knockout mice received 29 intraperitoneal injections each containing 25 μg Fe as Fe-BBG (1.3±0.18 μg Fe per gram body weight, N=5 mice, 2 male, 3 female) or containing saline (placebo, N=5 mice, 2 male, 3 female) over 15 days. The cumulative dose of Fe was 725 μg Fe (37±0.53 μg Fe per gram body weight). The mice were euthanized 120 min after the final injection. Blood was harvested for measurement of complete blood counts, and nonheme Fe parameters. Bone marrow and liver tissue were analyzed by qPCR for expression of genes related to erythropoietic activity, Fe exposure, oxidative stress, and inflammation, the data are tabulated in FIG. 15. Clinical chemistry was also recorded, see Example 16 below. FIG. 15 data are shown as mean±standard deviation. Statistical differences between groups were determined by two-tailed Student's t-test for normally distributed values or Mann-Whitney (/test for non-normally distributed values. Significant differences are indicated by *P<0.05, **P<0.01, ****P<0.0001.
FIG. 16 data are shown as mean±standard deviation. Statistical differences between groups were determined by two-tailed Student's t-test for normally distributed values or Mann-Whitney U test for non-normally distributed values. Significant differences are indicated by *P<0.05, **P<0.01, ***P<0.001, ****P<0.0001.

apo-transferrin [1] = molecular target: T1, apo-transferrin (Homo sapiens, UniProt P02787); experiment: Fe delivery to apo-transferrin (fluorescence quenching, urea gel electrophoresis); assay type: biochemical
T1 sequence (P02787 20-698): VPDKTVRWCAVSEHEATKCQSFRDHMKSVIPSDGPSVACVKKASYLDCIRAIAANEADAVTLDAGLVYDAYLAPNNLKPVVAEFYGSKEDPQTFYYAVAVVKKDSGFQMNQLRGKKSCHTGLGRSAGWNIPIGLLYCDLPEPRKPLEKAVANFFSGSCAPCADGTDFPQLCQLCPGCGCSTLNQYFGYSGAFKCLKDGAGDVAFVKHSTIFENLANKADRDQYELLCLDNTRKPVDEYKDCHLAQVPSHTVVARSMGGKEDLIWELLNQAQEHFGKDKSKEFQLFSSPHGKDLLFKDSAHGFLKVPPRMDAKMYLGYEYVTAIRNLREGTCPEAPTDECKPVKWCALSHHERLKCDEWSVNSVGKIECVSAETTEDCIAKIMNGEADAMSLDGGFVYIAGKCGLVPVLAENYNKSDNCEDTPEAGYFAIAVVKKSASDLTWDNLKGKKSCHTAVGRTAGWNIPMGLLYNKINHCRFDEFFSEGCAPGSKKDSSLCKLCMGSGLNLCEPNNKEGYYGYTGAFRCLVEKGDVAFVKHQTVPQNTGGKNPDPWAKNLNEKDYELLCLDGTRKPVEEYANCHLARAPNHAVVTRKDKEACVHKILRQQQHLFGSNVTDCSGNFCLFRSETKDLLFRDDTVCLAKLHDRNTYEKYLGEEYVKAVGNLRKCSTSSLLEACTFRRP
Experimental: Incubation with FPC was positive control, the stable compound Fe-PyC3A was negative control (Conditions: 50 mM HEPES buffer supplemented with 25 mM bicarbonate, pH 7.4, 37° C.).
Transfer of Fe from Fe-BBG to apo-transferrin can be monitored through quenching of the apo-transferrin intrinsic fluorescence.
Transfer of Fe from Fe-BBG to apo-transferrin can also be monitored using urea gel electrophoresis.

[2] = pH-potentiometric titration, Fe3+ complex; assay type: physicochemical; settings: 310 K, I=0.1 M NaCl
Experimental: The aqueous solutions thermodynamics of BBG and its corresponding complexes of Fe^3+, Cu^2+, and Zn^2+ were interrogated through pH-potentiometric titration of BBG (L) in the absence and presence of 1 molar equivalent of Fe^3+, Cu^2+, or Zn^2+, FIG. 13A.
pH-potentiometric measurements were performed using an Orion ROSS Ultra pH electrode and temperature-controlled reaction vessel held at 310 K. A standardized solution of 0.10 M NaOH was used as the titrant. The electrode was calibrated prior to each titration by titrating a standardized HCl(aq) solution at ionic strength 0.10 using NaCl as the inert electrolyte with the standardized NaOH titrant. A working slope and intercept were generated by plotting mV as a function of calculated pH, which enabled direct conversion of electrode readings to [H^+] during sample titrations. pH values recorded during the titrations refers to hydrogen ion concentration. All titration samples were prepared in solutions of 0.10 M NaCl in distilled, deionized water. Ligand solutions were prepared by dissolving a weighed quantity into water and concentration was determined from the effective weight of the ligand and confirmed by the quantity of NaOH required to consume 1 molar equivalent of ligand proton. […]

[3] = Pharmacokinetics by dynamic magnetic resonance imaging; assay type: in vivo; settings: mouse
Excerpt: Fe-BBG is paramagnetic, which enables us to monitor Fe-BBG blood clearance and excretion through dynamic magnetic resonance imaging.

apo-transferrin [4] = molecular target: T1, apo-transferrin; experiment: Time course of Fe3+ transfer to apo-transferrin (fluorescence at 330 nm); assay type: biochemical; settings: 40 μM Fe-BBG, 20 μM apo-transferrin, pH 7.4; instrument temporal resolution 6 s
Experimental: FIG. 5 plots the time course of Fe^3+ transfer of Fe-BBG to transferrin. The reaction was monitored through the quenching of apo-transferrin intrinsic fluorescence (conditions: 40 μM Fe-BBG, 20 μM apo-transferrin, 50 mM HEPES buffer supplemented with 25 mM HCO3, pH 7.4; 25° C. λEx=280 nm.). Fe^3+ transfer from Fe-BBG to apo-transferrin was complete within 6 s. The temporal resolution of the instrument is 6 s, and the reaction is too fast for us to quantify kinetics.

O.O.O=C([O-])CC[C@H]1C(=O)[O][Fe]2[O]c3ccccc3CN1Cc1ccccc1[O]2 [Fe-BBG]
oxidative stress (Tmprss6 knockout mice; from Hmox1, Gclc, NqoI taken together): did not result in oxidative stress | Serum amyloid A1 (SaaI) expression (Tmprss6 knockout mice; qPCR, marker of inflammation, repeat dosing): unchanged | liver NAD (P) H quinone dehydrogenase 1 (NqoI) expression (Tmprss6 knockout mice; qPCR, repeat dosing): did not trigger upregulation | liver glutamate-cysteine ligase catalytic subunit (Gclc) expression (Tmprss6 knockout mice; qPCR, repeat dosing): did not trigger upregulation | liver heme oxygenase 1 (Hmox1) expression (Tmprss6 knockout mice; qPCR, repeat dosing): did not trigger upregulation | clinical chemistry parameters (Tmprss6 knockout mice; repeat dosing, vs placebo): did not generate significant differences | Fe^3+ transfer to apo-transferrin (apo-transferrin [1]; 50 mM HEPES, 25 mM bicarbonate, pH 7.4, 37° C.): stoichiometric transfer | Fe^3+ transferred to apo-transferrin (apo-transferrin [1]; urea gel, 10 μM apo-transferrin, 0-10 equiv Fe-BBG): 2 molar equivalents | conditional pH 7.4 stability constant log KFeL PH 7.4 [2]: 19.51 | blood elimination half life (vena cava MR signal) ([3]; 0.14 mmol/kg injection, monoexponential fit): 5.5 ± 2.8 min | hepatobiliary excretion (liver, gallbladder, bowel enhancement) ([3]; MRI): partial hepatobiliary excretion | renal excretion (kidney enhancement) ([3]; MRI): rapid elimination through the kidneys; also recorded: rapid urinary excretion | time to complete Fe^3+ transfer to apo-transferrin (apo-transferrin [4]): ≤ 6 s
